Results taken from US7071231B2, “Naphthalene ureas as glucose uptake enhancers” (Telik, Inc., priority 1999, dated 2006).
Where a name gives a salt, the structure may show the parent alone.

molecular target: T1, β-kinase domain of the human insulin receptor (CKD) (Homo sapiens, UniProt P06213); assay: 32P-cytoplasmic kinase domain (CKD) autophosphorylation assay; assay type: biochemical; conditions: phosphorylation of CKD expressed as % of the vehicle level; 10 minutes at room temperature; compound concentration not given
T1 construct: The complete β-kinase domain of the human insulin receptor (CKD) was expressed in, and purified from, baculovirus; made in house
Protocol: ^32P-cytoplasmic Kinase Domain (CKD) Autophosphorylation Assay The insulin signaling pathway is activated through stimulation of the insulin receptor. A major component of this activation is the phosphorylation of a specific portion of the receptor called the β-kinase domain. The complete β-kinase domain of the human insulin receptor (CKD) was expressed in, and purified from, baculovirus. CKD (4.0μg/ml), in a solution of 29 mM HEPES (pH 7.6), 0.05% Triton X-100, 10 mM MgCl2, 2 mM MnCl2 (50 μl final volume), was combined with 50 μM ATP, and 5 μCi ^32P-ATP (3000Ci/mmol.). A test compound, or the vehicle (dimethyl sulfoxide (DMSO)) was added to a final DMSO concentration of 1%. The mixture was incubated for 10 minutes at room temperature. The reaction was terminated by the addition of 10 μl 200 mM EDTA. A 30 μl volume was removed, mixed with 5 μl of 6× Laemmeli sodium dodecyl sulfate (SDS) treatment buffer, and heated to 94° C. for 5 minutes. A 20 μl aliquot was then run an SDS-PAGE gel. The radioactivity incorporated into the CKD band was quantified by phosphorimaging of the gel, or scintillation counting of the excised bands. The potency of a compound for increasing phosphorylation was expressed as % of the vehicle level.

T1 sequence (P06213 980-1382 limits assumed): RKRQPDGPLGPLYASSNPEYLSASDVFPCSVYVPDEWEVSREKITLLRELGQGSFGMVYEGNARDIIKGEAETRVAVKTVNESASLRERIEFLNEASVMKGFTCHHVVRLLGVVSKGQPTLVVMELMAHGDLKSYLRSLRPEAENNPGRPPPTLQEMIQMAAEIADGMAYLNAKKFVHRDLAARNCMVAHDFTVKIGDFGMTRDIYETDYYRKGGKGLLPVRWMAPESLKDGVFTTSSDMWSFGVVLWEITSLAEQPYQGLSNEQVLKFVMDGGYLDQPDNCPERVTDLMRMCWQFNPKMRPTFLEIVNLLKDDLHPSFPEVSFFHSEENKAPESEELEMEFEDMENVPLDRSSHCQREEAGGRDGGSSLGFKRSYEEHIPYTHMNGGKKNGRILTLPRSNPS

Molecule | % Activity vs. Control [%]
O=C(Nc1ccc2ccc(S(=O)(=O)O)cc2c1)Nc1ccc2ccc(S(=O)(=O)O)cc2c1 [Compound 3, 7-{[(7-sulfo-2-naphthyl)amino]carbonylamino}naphthalene-2-sulfonic acid disodium salt] | 88
Cc1ccc(OS(=O)(=O)c2cccc(NS(=O)(=O)c3ccc4ccc(NC(=O)Nc5ccc6ccc(S(=O)(=O)Nc7cccc(S(=O)(=O)Oc8ccc(C)cc8)c7)cc6c5)cc4c3)c2)cc1 [Compound 9, 4-methylphenyl 3-[({7-[(N-{7-[({3-[(4-methylphenyl)oxysulfonyl]phenyl}amino)sulfonyl]-2-naphthyl}carbamoyl)amino]-2-naphthyl}sulfonyl)amino]benzenesulfonate] | 118
O=C(Nc1ccc2ccc(S(=O)(=O)O)cc2c1)Nc1ccc2ccc(S(=O)(=O)Nc3cccc(S(=O)(=O)O)c3)cc2c1 [Compound 12, 7-{[(7-{[(3-sulfophenyl)amino]sulfonyl}-2-naphthyl)amino]carbonylamino}naphthalene-2-sulfonic acid disodium salt] | 131
O=C(Nc1ccc2c(O)c(Br)c(S(=O)(=O)O)cc2c1)Nc1ccc2c(O)c(Br)c(S(=O)(=O)O)cc2c1 [Compound 16, 3-bromo-7-{[(6-bromo-5-hydroxy-7-sulfo(2-naphthyl))amino]carbonylamino}-4-hydroxynaphthalene-2-sulfonic acid disodium salt] | 144
O=C(Nc1ccc2ccc(S(=O)(=O)Nc3ccccc3)cc2c1)Nc1ccc2ccc(S(=O)(=O)Nc3ccccc3)cc2c1 [Compound 76, N-{7-[(phenylamino)sulfonyl](2-naphthyl)}({7-[(phenylamino)sulfonyl](2-naphthyl)}amino)carboxamide] | 89
O=C(O)COc1cc(S(=O)(=O)[O-])cc2cc(NC(=O)Nc3ccc4c(OCC(=O)O)cc(S(=O)(=O)[O-])cc4c3)ccc12.[Na+].[Na+] [Compound 97, 2-[6-({N-[5-(carboxymethoxy)-7-sulfo(2-naphthyl)]carbamoyl}amino)-3-sulfonaphthyloxy]acetic acid disodium salt] | 99
O=C(Nc1ccc2c(OCc3ccccc3S(=O)(=O)O)cc(S(=O)(=O)O)cc2c1)Nc1ccc2c(OCc3ccccc3S(=O)(=O)O)cc(S(=O)(=O)O)cc2c1 [Compound 100, 4-[(2-sulfophenyl)methoxy]-7-[({7-sulfo-5-[(2-sulfophenyl)methoxy](2-naphthyl)}amino)carbonylamino]naphthalene-2-sulfonic acid] | 79
O=C(Nc1ccc2c(OCCCS(=O)(=O)O)cc(S(=O)(=O)O)cc2c1)Nc1ccc2c(OCCCS(=O)(=O)O)cc(S(=O)(=O)O)cc2c1 [Compound 101, 4-(3-sulfopropoxy)-7-({[7-sulfo-5-(3-sulfopropoxy)(2-naphthyl)]amino}carbonylamino)naphthalene-2-sulfonic acid] | 104

Second part, the molecule after the results:

% Activity vs. Control [%] | Molecule
96 | Cc1ccc(OS(=O)(=O)c2cccc(NS(=O)(=O)c3cc(O)c4ccc(NC(=O)Nc5ccc6c(O)cc(S(=O)(=O)Nc7cccc(S(=O)(=O)Oc8ccc(C)cc8)c7)cc6c5)cc4c3)c2)cc1 [Compound 11, 4-methylphenyl 3-[({4-hydroxy-7-[(N-{5-hydroxy-7-[({3-[(4-methylphenyl)oxysulfonyl]phenyl}amino)sulfonyl](2-naphthyl)}carbamoyl)amino]-2-naphthyl}sulfonyl)amino]benzenesulfonate]
110 | O=C(Nc1ccc2c(O)cc(S(=O)(=O)O)cc2c1)Nc1ccc2c(O)cc(S(=O)(=O)Nc3cccc(S(=O)(=O)O)c3)cc2c1 [Compound 14, 4-hydroxy-7-{[(5-hydroxy-7-{[(3-sulfophenyl)amino]sulfonyl}(2-naphthyl))amino]carbonylamino}naphthalene-2-sulfonic acid]
80 | NS(=O)(=O)c1cccc(NS(=O)(=O)c2ccc3ccc(NC(=O)Nc4ccc5ccc(S(=O)(=O)Nc6cccc(S(N)(=O)=O)c6)cc5c4)cc3c2)c1 [Compound 23, N-(7-{[(3-sulfamoylphenyl)amino]sulfonyl}(2-naphthyl))[(7-{[(3-sulfamoylphenyl)amino]sulfonyl}(2-naphthyl))amino]carboxamide]
124 | COC(=O)c1ccc(NS(=O)(=O)c2cc(O)c3ccc(NC(=O)Nc4ccc5c(O)cc(S(=O)(=O)O)cc5c4)cc3c2)cc1 [Compound 26, 4-hydroxy-7-({[5-hydroxy-7-({[4-(methoxycarbonyl)phenyl]amino}sulfonyl)(2-naphthyl)]amino}carbonylamino)naphthalene-2-sulfonic acid]
112 | COC(=O)c1ccc(NS(=O)(=O)c2cc(O)c3ccc(NC(=O)Nc4ccc5c(O)cc(S(=O)(=O)Nc6ccc(C(=O)OC)cc6)cc5c4)cc3c2)cc1 [Compound 27, methyl 4-({[4-hydroxy-7-({[5-hydroxy-7-({[4-(methoxycarbonyl)phenyl]amino}sulfonyl)(2-naphthyl)]amino}carbonylamino)-2-naphthyl]sulfonyl}amino)benzoate]
101 | CCOC(=O)COc1cc(S(=O)(=O)O)cc2cc(NC(=O)Nc3ccc4c(OCC(=O)OCC)cc(S(=O)(=O)O)cc4c3)ccc12.N.N [Compound 95, 4-[(ethoxycarbonyl)-methoxy]-7-[({5-[(ethoxycarbonyl)methoxy]-7-sulfo(2-naphthyl)}amino)-carbonylamino]-naphthalene-2-sulfonic acid, diammonium salt]
115 | O=C(Nc1ccc2c(O)cc(S(=O)(=O)O)cc2c1)Nc1ccc2c(OCCCS(=O)(=O)O)cc(S(=O)(=O)O)cc2c1 [Compound 102, 4-hydroxy-7-({[7-sulfo-5-(3-sulfopropoxy)(2-naphthyl)]amino}carbonylamino)naphthalene-2-sulfonic acid]

tested on: 3T3 L1 fibroblasts; assay: Glucose transport activity assay (14C-2-deoxy-D-glucose uptake); assay type: cell-based; conditions: EC (effective concentration) for increase in glucose transport; 14C-2-deoxy-D-glucose, 3T3 L1 cells; read-out: Concentration (μM) to reach >150% activity of vehicle control
Outline: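 Differentiated 3T3 L1 adipocytes (IBMX/dexamethasone/insulin induction), serum-starved overnight, preincubated 30 min at 37 °C with compound ± insulin in pH 7.4 salt buffer, then 30 min with 5 μCi/ml 14C-2-deoxy-D-glucose. Lysate radioactivity counted; EC = concentration raising uptake above 150% of vehicle control.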

Molecule | EC (150% of vehicle control) [µM]
methyl 2-chloro-5-[({7-[({[7-({[4-chloro-3-(methoxycarbonyl)phenyl]amino}sulfonyl)(2-naphthyl)]amino}iminomethyl)amino](2-naphthyl)}sulfonyl)amino]benzoate [Compound 159] | 3.2

same assay, conditions: Mus musculus; EC (effective concentration) for increase in glucose transport; 14C-2-deoxy-D-glucose, 3T3 L1 cells; read-out: Concentration (μM) to reach >150% activity of vehicle control

Molecule | EC (150% of vehicle control) [µM]
O=C(Nc1ccc2ccc(S(=O)(=O)O)cc2c1)Nc1ccc2ccc(S(=O)(=O)O)cc2c1 [Compound 3, 7-{[(7-sulfo-2-naphthyl)amino]carbonylamino}naphthalene-2-sulfonic acid disodium salt] | 3.2
O=C(Nc1ccc2c(O)c(Br)c(S(=O)(=O)O)cc2c1)Nc1ccc2c(O)c(Br)c(S(=O)(=O)O)cc2c1 [Compound 16, 3-bromo-7-{[(6-bromo-5-hydroxy-7-sulfo(2-naphthyl))amino]carbonylamino}-4-hydroxynaphthalene-2-sulfonic acid disodium salt] | 32
NS(=O)(=O)c1cccc(NS(=O)(=O)c2ccc3ccc(NC(=O)Nc4ccc5ccc(S(=O)(=O)Nc6cccc(S(N)(=O)=O)c6)cc5c4)cc3c2)c1 [Compound 23, N-(7-{[(3-sulfamoylphenyl)amino]sulfonyl}(2-naphthyl))[(7-{[(3-sulfamoylphenyl)amino]sulfonyl}(2-naphthyl))amino]carboxamide] | 10
COC(=O)c1ccc(NS(=O)(=O)c2cc(O)c3ccc(NC(=O)Nc4ccc5c(O)cc(S(=O)(=O)O)cc5c4)cc3c2)cc1 [Compound 26, 4-hydroxy-7-({[5-hydroxy-7-({[4-(methoxycarbonyl)phenyl]amino}sulfonyl)(2-naphthyl)]amino}carbonylamino)naphthalene-2-sulfonic acid] | 32
O=C(Nc1ccc2cc(S(=O)(=O)Nc3cccc(C(=O)O)c3)ccc2c1)Nc1ccc2cc(S(=O)(=O)Nc3cccc(C(=O)O)c3)ccc2c1 [Compound 171, 3-{[(6-{[(6-{[(3-carboxyphenyl)amino]sulfonyl}-2-naphthyl)amino]carbonylamino}-2-naphthyl)sulfonyl]amino}benzoic acid] | 3.2
O=C(Nc1ccc2cc(S(=O)(=O)Nc3ccc(C(=O)O)cc3)ccc2c1)Nc1ccc2cc(S(=O)(=O)Nc3ccc(C(=O)O)cc3)ccc2c1 [Compound 173, 4-{[(6-{[(6-{[(4-carboxyphenyl)amino]sulfonyl}-2-naphthyl)amino]carbonylamino}-2-naphthyl)sulfonyl]amino}benzoic acid] | 3.2
O=C(Nc1ccc2cc(S(=O)(=O)Nc3cc(C(=O)O)cc(C(=O)O)c3)ccc2c1)Nc1ccc2cc(S(=O)(=O)Nc3cc(C(=O)O)cc(C(=O)O)c3)ccc2c1 [Compound 175, 5-{[(6-{[(6-{[(3,5-dicarboxyphenyl)amino]sulfonyl}-2-naphthyl)amino]carbonylamino}-2-naphthyl)sulfonyl]amino}benzene-1,3-dicarboxylic acid] | 3.2
O=C(Nc1ccc2cc(S(=O)(=O)Nc3c(F)c(F)cc(C(=O)O)c3F)ccc2c1)Nc1ccc2cc(S(=O)(=O)Nc3c(F)c(F)cc(C(=O)O)c3F)ccc2c1 [Compound 177, 3-{[(6-{[(6-{[(3-carboxy-2,5,6-trifluorophenyl)amino]sulfonyl}(2-naphthyl))amino]carbonylamino}(2-naphthyl))sulfonyl]amino}-2,4,5-trifluorobenzoic acid] | > 32
O=C(O)Cc1ccc(NS(=O)(=O)c2ccc3cc(NC(=O)Nc4ccc5cc(S(=O)(=O)Nc6ccc(CC(=O)O)cc6)ccc5c4)ccc3c2)cc1 [Compound 179, 2-[4-({[6-({N-[6-({[4-(carboxymethyl)phenyl]amino}sulfonyl)-2-naphthyl]carbamoyl}amino)-2-naphthyl]sulfonyl}amino)phenyl]acetic acid] | > 32
O=C(Nc1ccc2cc(S(=O)(=O)N3CCCC(C(=O)O)C3)ccc2c1)Nc1ccc2cc(S(=O)(=O)N3CCCC(C(=O)O)C3)ccc2c1 (centres unmarked) [Compound 181, 1-({6-[({6-[(3-carboxypiperidyl)sulfonyl]-2-naphthyl}amino)carbonylamino]-2-naphthyl}sulfonyl)piperidine-3-carboxylic acid] | 3.2
